One substance from US20200179488A1, “Secretin Receptor Agonists to Treat Diseases or Disorders of Energy Homeostasis” (Technische Universität München, priority 2016, published 2020) can be followed below.

One assay has as its system wildtype mice. Kind of assay: Indirect calorimetry, heat production after i.p. injection in wildtype mice. The assay is classed as in vivo, Mus musculus. Particulars: 0.5 mg/kg i.p., 27° C. Here is the method:
Indirect calorimetric measurements in mice were performed using an open flow respirometry system (Phenomaster, TSE Systems, Bad Homburg/Germany). All animals were kept at room temperature or cold-acclimated at 4° C. for 4 days as indicated in the results section. For the gas exchange measurement (O2 consumption and CO2 production) mice were placed individually in metabolic cages (type I, 3 liter volume) without food and water and transferred to a climate cabinet (TPK 600, Feutron, Greiz/Germany). The air was continuously pulled through the cages at a flow rate of 33 l/h. For gas analysis a subsample was dried in a cooling trap and analyzed for gas exchange. Mice in the cabinet were preconditioned to 30° C. and the basal metabolic rate (BMR) in the post-absorptive state was measured between 8:00 a.m.-12:00 p.m. The O2 consumption and CO2 production of each mouse was analyzed every 5 min over a period of 1 min. […] After injection the O2 consumption and CO2 production rate of each mouse was recorded for 45-60 min with high-resolution recordings at 10 sec intervals. […] Respiratory exchange ratios (RER) and heat production (HP) were calculated from the following formula: (RER=CO2 production/O2 consumption) and (HP[mW]=(4.44+1.43*respiratory exchange ratio)*oxygen consumption [ml/h]).

Assay [1] has as its system primary brown adipocytes from UCP1 knockout mice. The experiment in a line: Microplate respirometry (oxygen consumption rate) in primary brown adipocytes from UCP1 knockout mice. The assay is classed as cell-based, Mus musculus. The method, then: For culturing primary adipocytes male 129S1/SvImJ mice ([…] or UCP1-KO mice and wildtype littermates) at the age of 5-6 weeks were used for the dissection of inguinal and epidydimal white adipose tissue and interscapular brown adipose tissue depots. The tissue was carefully minced and treated with collagenase for 45 min at 37° C. The homogenate was filtered through a 250 μm nylon mesh and centrifuged at 500 g to collect the stromal vascular fraction (SVF). The SVF cell pellet was rinsed and seeded into XF96 V3-PS cell culture microplate (Seahorse Bioscience). After reaching confluency, induction medium containing 10% fetal bovine serum (FBS), 0.5 mM isobutylmethylxanthine, 125 nM indomethacin, 1 mM dexamethasone, 850 nM insulin and 1 nM T3 was added. After 2 days of induction, cells were maintained in differentiation media (10% FBS, 850 nM insulin and 1 nM T3). Medium was changed every two days. Respiration was measured on day 7 of differentiation. For determination of mRNA levels cells were stimulated at the 7th day of differentiation for 6 hours with secretin (rat, Tocris, Art Nr 1919) or isoproterenol (Sigma-Aldrich, Art Nr. 16504-100MG) and harvested subsequently. Oxygen consumption rate (OCR) was measured at 37° C. using a microplate respirometer (XF96 extracellular flux analyzer, Seahorse Bioscience). At day 7, the differentiation medium was replaced with prewarmed, unbuffered assay medium (DMEM basal medium supplemented with 25 mM glucose, 2 mM sodium pyruvate, 31 mM NaCl, 2 mM GlutaMax and 15 mg/l phenol red, pH 7.4) containing 2% of essentially fatty acid free bovine serum albumin (BSA), and incubated at 37° C. in a room air incubator for 1 h. Basal respiration was measured in untreated cells. […] Maximum respiratory capacity was assessed after FCCP (Sigma-Aldrich) addition (1 μM). […] Oxygen consumption rates were calculated using the Seahorse XF-96 software. […] For induction of OCR by isoproterenol, secretin or FCCP the highest values measured after addition of the respective molecule was used. The “OCR in % of basal OCR” and “OCR in % of FCCP OCR” were calculated as follows: Method: To test whether SCT can activate thermogenesis in brown adipocytes, we measured UCP1-mediated uncoupled respiration in cultured adherent intact primary brown adipocytes, according to a protocol recently established in our lab (Li Y, Fromme T, Schweizer S, Schöttl T, Klingenspor M. EMBO Rep. 2014 October; 15(10):1069-76. doi: 10.15252/embr.201438775; […]. Meaningful respirometric measurements of UCP1-mediated thermogenesis. Biochimie. 2017 March; 134:56-61. doi: 10.1016/j.biochi.2016.12.005.). The cellular oxygen consumption rate (OCR) of primary adipocytes was determined using an XF96 Extracellular Flux Analyzer (Seahorse Bioscience). […]

With secretin, the “AUC of heat production versus PBS” value in the assay with wildtype mice (129/S6 wildtype mice, 45 minutes, basal subtracted, p=0.001 (FIG. 5B)) is recorded as “significant increase in the AUC”; in the assay on wildtype mice (wildtype mice of 129/S1-UCP1 knockout strain, 60 minutes, p=0.002 (FIG. 6C)) it was “higher AUC”. In assay [1] (129/S1 background, FIG. 3), the “induction of respiration in cells from UCP1 knockout mice” value is given as “lacking”. Besides, in assay [1] (SCT 10 nM, ISO 500 nM (FIG. 10B)), the “response of respiration in UCP1 knockout brown adipocytes” value is on record as “did not respond”.
